{"source": "paper PMC4471201", "about": "“Micafungin concentrations 100 mg daily in plasma and burn eschars in patients with severe burn injuries” (Critical Care, 2015)", "format_in_all_cases": "in vivo", "key": {"[1]": {"experiment": "MCF levels in burn eschar tissue on day 5, HPLC", "conditions": "Spearman's rho test; 10 patients", "description": "(§1) A PK study of MCF at standard dosage (100 mg/day). Cmax (end of the infusion) and Cmin (before next dose) plasma levels of MCF were obtained after first dose and at steady state (days 4 and 5 of therapy); and on day 5 in eschars (1 to 3 hours after infusion). They were measured by HPLC. Spearman's rho test was used for bivariate correlations between MCF exposure and patient's clinical factors."}, "[2]": {"experiment": "Plasma levels of MCF (Cmax/Cmin) in severely burned patients, HPLC", "conditions": "100 mg/day", "description": "as §1"}, "[3]": {"experiment": "Tolerability of MCF 100 mg/day in severely burned patients", "conditions": "10 severely burned patients", "description": "as §1\nThere were 10 patients (eight men; age: 18 to 77 years). […] Peak plasma concentrations after the first and repeated doses of MCF were inversely correlated with % burned TBSA (Spearman's ρ = -0.695 and -0.750 (P < 0.05)), respectively, but not with the time from burn injury. […] One patient had candidemia. The crude mortality was 40%."}}, "note": "*1 amine or outer side, *2 acyl side, *3 side chain or, on linkers, in order; H or OH if unused. Where a SMILES comes first, the peptide text is derived from it. Bridges are numbered along the chain shown (N, C = ends). [ ]: non-standard residue; d: D form. The star is where a group is joined. hTyr(3S-OH,4S-OH,3'-OSO3H) = N[C@H](C(=O)O)[C@H](O)[C@@H](O)c1ccc(O)c(OS(=O)(=O)O)c1; Orn(4R-OH,5R-OH) = O=C([C@H](C[C@@H](O)[C@@H](O)N[*:3])N[*:1])[*:2]; Pro(3S-OH,4S-Me) = C[C@H]1CN[C@H](C(=O)O)[C@H]1O; X1 = CCCCCOc1ccc(-c2cc(-c3ccc(C(=O)*)cc3)no2)cc1; Gln(3R-OH) = NC(=O)C[C@@H](O)[C@H](N)C(=O)O; Hyp = O=C(O)[C@@H]1C[C@@H](O)CN1"}
{"smiles": "CCCCCOc1ccc(-c2cc(-c3ccc(C(=O)N[C@H]4C[C@@H](O)[C@@H](O)NC(=O)[C@@H]5[C@@H](O)[C@@H](C)CN5C(=O)[C@H]([C@H](O)CC(N)=O)NC(=O)[C@H]([C@H](O)[C@@H](O)c5ccc(O)c(OS(=O)(=O)O)c5)NC(=O)[C@@H]5C[C@@H](O)CN5C(=O)[C@H]([C@@H](C)O)NC4=O)cc3)no2)cc1", "note": "[MCF, Micafungin] (X1-[Orn(4R-OH,5R-OH)]T[Hyp][hTyr(3S-OH,4S-OH,3'-OSO3H)][Gln(3R-OH)][Pro(3S-OH,4S-Me)]; lactam 1-C)", "values": [{"measurement": "Correlation of concentrations in burn eschars with % burned TBSA", "setting": "[1]", "value": "not correlated"}, {"measurement": "Plasma levels compared with MIC90 against most clinically important Candida species", "setting": "[2]; after first and multiple doses", "value": "above the MIC90"}, {"measurement": "Plasma Cmin after first dose, median", "setting": "[2]; median of 10 patients, before next dose, plasma, HPLC", "value": 700, "unit": "ng/mL"}, {"measurement": "Plasma Cmin at steady state, median", "setting": "[2]; median of 10 patients, days 4 and 5 of therapy, before next dose, plasma, HPLC", "value": 1000, "unit": "ng/mL"}, {"measurement": "Plasma Cmax at steady state, median", "setting": "[2]; median of 10 patients, days 4 and 5 of therapy, end of the infusion, plasma, HPLC", "value": 6400, "unit": "ng/mL"}, {"measurement": "Plasma Cmax after first dose, median", "setting": "[2]; median of 10 patients, end of the infusion, plasma, HPLC", "value": 4700, "unit": "ng/mL"}, {"measurement": "Tolerability", "setting": "[3]", "value": "well tolerated"}]}
